Source: ChEMBL document CHEMBL5512638, “Novel pyrrole based CB2 agonists: New insights on CB2 receptor role in regulating neurotransmitters' tone” (Eur J Med Chem, 2024)

Legend:
[1] = target: T1, Cannabinoid receptor 2 (Homo sapiens, UniProt P34972); test: Displacement of [3H]CP55940 from recombinant human CB2 receptor expressed in HEK293 cell membrane assessed as inhibition constant incubated for 90 mins by competition binding assay; format: cell membranes; conditions: read-out: Ki
[2] = target: T2, Cannabinoid receptor 1 (Homo sapiens, UniProt P21554); test: Displacement of [3H]CP55940 from recombinant human CB1 receptor expressed in HEK293 cell membrane incubated for 90 mins by competition binding assay; format: cell membranes; conditions: read-out: IC50
[3] = target: T2, Cannabinoid receptor 1; test: Displacement of [3H]CP55940 from recombinant human CB1 receptor expressed in HEK293 cell membrane assessed as inhibition constant incubated for 90 mins by competition binding assay; format: cell membranes; conditions: read-out: Ki
[4] = target: T1, Cannabinoid receptor 2; test: Displacement of [3H]CP55940 from recombinant human CB2 receptor expressed in HEK293 cell membrane incubated for 90 mins by competition binding assay; format: cell membranes; conditions: read-out: IC50
[5] = target: T1, Cannabinoid receptor 2; test: Agonist activity at human CB2 receptor expressed in CHO-K1 cells assessed as reduction in NKH-477 induced cAMP production by chemiluminescence based cAMP hunter assay; format: functional, cell-based
[6] = species: Homo sapiens; test: Selectivity ratio of Ki for displacement of [3H]CP55940 from recombinant human CB2 receptor expressed in HEK293 cell membrane to Ki for displacement of [3H]CP55940 from recombinant human CB1 receptor expressed in HEK293 cell membrane; format: cell membranes
[7] = Chemical stability of compound in phosphate buffer at pH 7.4 assessed as compound remaining at 5 uM measured after 2 hrs by UHPLC-MS analysis; format: physicochemical; conditions: read-out: Stability
[8] = Chemical stability of compound in phosphate buffer at pH 7.4 assessed as compound remaining at 5 uM measured after 0.5 hrs by UHPLC-MS analysis; format: physicochemical; conditions: read-out: Stability
[9] = Chemical stability of compound in phosphate buffer at pH 7.4 assessed as compound remaining at 5 uM measured after 1.5 hrs by UHPLC-MS analysis; format: physicochemical; conditions: read-out: Stability
[10] = target: T1, Cannabinoid receptor 2; test: Partial agonist activity at human CB2 receptor expressed in CHO-K1 cells assessed as reduction in NKH-477 induced cAMP production by measuring maximal efficacy by chemiluminescence based cAMP hunter assay relative to control; format: functional, cell-based; conditions: filed as partial agonist
[11] = Chemical stability of compound in phosphate buffer at pH 7.4 assessed as compound remaining at 5 uM measured after 1 hrs by UHPLC-MS analysis; format: physicochemical; conditions: read-out: Stability
[12] = target: T1, Cannabinoid receptor 2; test: Partial agonist activity at human CB2 receptor expressed in CHO-K1 cells assessed as reduction in NKH-477 induced cAMP production by chemiluminescence based cAMP hunter assay; format: functional, cell-based

T2 sequence (P21554 whole entry): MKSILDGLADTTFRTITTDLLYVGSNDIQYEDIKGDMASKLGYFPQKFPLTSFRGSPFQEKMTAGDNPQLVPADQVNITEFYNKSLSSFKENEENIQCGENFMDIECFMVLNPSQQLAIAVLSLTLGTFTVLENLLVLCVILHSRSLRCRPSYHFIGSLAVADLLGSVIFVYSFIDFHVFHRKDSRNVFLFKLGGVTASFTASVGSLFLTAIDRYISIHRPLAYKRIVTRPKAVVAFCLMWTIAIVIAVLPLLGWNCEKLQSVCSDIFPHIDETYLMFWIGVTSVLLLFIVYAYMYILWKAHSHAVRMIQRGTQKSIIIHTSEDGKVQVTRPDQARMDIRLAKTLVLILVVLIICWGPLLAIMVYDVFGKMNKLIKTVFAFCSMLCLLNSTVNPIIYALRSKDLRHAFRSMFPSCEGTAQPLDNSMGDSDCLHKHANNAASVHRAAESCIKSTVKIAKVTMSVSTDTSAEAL
T1 sequence (P34972 whole entry): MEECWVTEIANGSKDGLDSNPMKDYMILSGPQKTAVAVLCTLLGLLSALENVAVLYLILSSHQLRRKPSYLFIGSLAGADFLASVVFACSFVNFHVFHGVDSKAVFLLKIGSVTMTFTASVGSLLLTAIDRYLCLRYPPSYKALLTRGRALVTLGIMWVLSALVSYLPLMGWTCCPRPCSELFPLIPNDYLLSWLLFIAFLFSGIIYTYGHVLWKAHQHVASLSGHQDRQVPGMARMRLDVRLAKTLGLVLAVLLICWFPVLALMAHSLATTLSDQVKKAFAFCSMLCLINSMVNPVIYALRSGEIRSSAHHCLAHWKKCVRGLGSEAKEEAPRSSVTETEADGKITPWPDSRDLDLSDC

Row | SMILES | Ki [1] | IC50 [2] | Ki [3] | IC50 [4] | EC50 [5] | Ratio Ki [6] | remaining at 2 h, 5 µM [7] | remaining at 0.5 h, 5 µM [8] | remaining at 1.5 h, 5 µM [9] | Emax [10] | remaining at 1 h, 5 µM [11] | EC50 [12]
1 | O=C(NCc1ccc(O)cc1)c1cccn1Cc1ccc(F)cc1 | > 10000 nM | > 10 µM | > 10 µM | > 10 µM | – | – | – | – | – | – | – | –
2 | O=C(NCc1ccco1)c1cccn1Cc1ccc(-c2ccccc2)cc1 | 230 nM | > 10 µM | > 10 µM | 1.47 µM | – | – | – | – | – | – | – | –
3 | Nc1ccc(CNC(=O)c2cccn2Cc2ccc(F)cc2)cc1 | > 10000 nM | > 10 µM | > 10 µM | > 10 µM | – | – | – | – | – | – | – | –
4 | CCCC(C)(C)c1ccc2c(c1)OC(C)(C)[C@@H]1CC=C(C)C[C@@H]21 | 5 nM | – | 0.281 µM | – | 90 nM | – | – | – | – | – | – | –
5 | Cc1ccc(Cn2cccc2C(=O)c2ccc(Cl)cc2)cc1 | > 10000 nM | > 10 µM | > 10 µM | > 10 µM | – | – | – | – | – | – | – | –
6 | Cc1ccc(CNC(=O)c2cccn2Cc2ccc(F)cc2)cc1 | > 10000 nM | > 10 µM | > 10 µM | > 10 µM | – | – | – | – | – | – | – | –
7 | Cc1ccc(NC(=O)c2cccn2Cc2ccc(F)cc2)cc1 | 270 nM | 6.13 µM | 1.03 µM | 1.32 µM | – | 5 | – | – | – | – | – | –
8 | Nc1cccc(C(=O)Nc2cccc(NC(=O)CO)c2)c1 | > 10000 nM | > 10 µM | > 10 µM | > 10 µM | – | – | – | – | – | – | – | –
9 | CC(=O)OCCCCn1cccc1C(=O)NCc1ccccc1 | > 10000 nM | > 10 µM | > 10 µM | > 10 µM | – | – | – | – | – | – | – | –
10 | O=C(NCc1ccccc1)c1cccn1Cc1ccc(F)cc1 | 706 nM | > 10 µM | > 10 µM | 4.6 µM | – | – | – | – | – | – | – | –
11 | CCOC(=O)CCCn1cccc1C(=O)c1ccccc1Cl | > 10000 nM | > 10 µM | > 10 µM | > 10 µM | – | – | – | – | – | – | – | –
12 | CC(=O)Oc1cccc(Cn2cccc2C(=O)c2ccccc2Cl)c1 | 1560 nM | > 10 µM | > 10 µM | 9.83 µM | – | – | – | – | – | – | – | –
13 | O=C(c1ccccc1Cl)c1cccn1CCCCO | > 10000 nM | > 10 µM | > 10 µM | > 10 µM | – | – | – | – | – | – | – | –
14 | N=C(N)NCCCn1cccc1C(=O)c1ccccc1Cl | > 10000 nM | > 10 µM | > 10 µM | > 10 µM | – | – | – | – | – | – | – | –
15 | CC(=O)OCCCCn1cccc1C(=O)c1ccccc1Cl | 1260 nM | > 10 µM | > 10 µM | 7.91 µM | – | – | – | – | – | – | – | –
16 | CCCCCn1cccc1C(=O)c1ccc(C)cc1 | > 10000 nM | > 10 µM | > 10 µM | > 10 µM | – | – | – | – | – | – | – | –
17 | CC(=O)OCCn1cccc1C(=O)c1ccccc1Cl | > 10000 nM | > 10 µM | > 10 µM | > 10 µM | – | – | – | – | – | – | – | –
18 | O=C(c1ccccc1Cl)c1cccn1CC12CC3CC(CC(C3)C1)C2 | 670 nM | > 10 µM | > 10 µM | 4.22 µM | – | – | – | – | – | – | – | –
19 | O=C(Nc1cccc2ccccc12)c1cccn1Cc1ccc(F)cc1 | 60 nM | > 10 µM | > 10 µM | 0.39 µM | – | – | 99.2% | 101% | 103% | 43.1% | 101% | 6.11 µM
20 | Cc1ccc(C(=O)c2cccn2S(=O)(=O)c2ccc(C)cc2)cc1 | > 10000 nM | > 10 µM | > 10 µM | > 10 µM | – | – | – | – | – | – | – | –
21 | O=C(NC12CC3CC(CC(C3)C1)C2)c1cccn1Cc1ccc(F)cc1 | 10 nM | > 10 µM | > 10 µM | 0.07 µM | 2360 nM | – | 102% | 98.6% | 99.2% | – | 98.8% | –
